The source made the active and inactive calls. The rule behind the calls is not given here.
Legend:
[1] = tested on: CCRF-CEM; assay: Growth inhibition of human CCRF-CEM cells incubated for 48 hrs by sulforhodamine B assay; type: functional
[2] = tested on: MOLT-4; assay: Growth inhibition of human MOLT4 cells incubated for 48 hrs by sulforhodamine B assay; type: functional; conditions: MOLT-4, 48 h
[3] = tested on: A549; assay: Growth inhibition of human A549/ATCC cells incubated for 48 hrs by sulforhodamine B assay; type: functional; conditions: A549, 48 h
[4] = tested on: HOP-62; assay: Growth inhibition of human HOP62 cells incubated for 48 hrs by sulforhodamine B assay; type: functional; conditions: HOP-62, 48 h
[5] = tested on: NCI-H23; assay: Growth inhibition of human NCI-H23 cells incubated for 48 hrs by sulforhodamine B assay; type: functional; conditions: NCI-H23, 48 h
[6] = tested on: NCI-H322M; assay: Growth inhibition of human NCI-H322M cells incubated for 48 hrs by sulforhodamine B assay; type: functional
[7] = tested on: NCI-H460; assay: Growth inhibition of human NCI-H460 cells incubated for 48 hrs by sulforhodamine B assay; type: functional; conditions: NCI-H460, 48 h
[8] = tested on: SNB-19; assay: Growth inhibition of human SNB19 cells incubated for 48 hrs by sulforhodamine B assay; type: functional; conditions: SNB-19, 48 h
[9] = tested on: U-251; assay: Growth inhibition of human U251 cells incubated for 48 hrs by sulforhodamine B assay; type: functional; conditions: U-251, 48 h
[10] = tested on: LOX IMVI; assay: Growth inhibition of human LOXIMVI cells incubated for 48 hrs by sulforhodamine B assay; type: functional
[11] = tested on: Malme-3M; assay: Growth inhibition of human MALME-3M cells incubated for 48 hrs by sulforhodamine B assay; type: functional
[12] = tested on: MDA-MB-435; assay: Growth inhibition of human MDA-MB-435 cells incubated for 48 hrs by sulforhodamine B assay; type: functional; conditions: MDA-MB-435, 48 h
[13] = tested on: UACC-257; assay: Growth inhibition of human UACC257 cells incubated for 48 hrs by sulforhodamine B assay; type: functional; conditions: UACC-257, 48 h
[14] = tested on: COLO 205; assay: Growth inhibition of human COLO205 cells incubated for 48 hrs by sulforhodamine B assay; type: functional; conditions: COLO 205, 48 h
[15] = tested on: HCC 2998; assay: Growth inhibition of human HCC2998 cells incubated for 48 hrs by sulforhodamine B assay; type: functional; conditions: HCC 2998, 48 h
[16] = tested on: HCT-116; assay: Growth inhibition of human HCT116 cells incubated for 48 hrs by sulforhodamine B assay; type: functional; conditions: HCT-116, 48 h
[17] = tested on: HCT-15; assay: Growth inhibition of human HCT15 cells incubated for 48 hrs by sulforhodamine B assay; type: functional; conditions: HCT-15, 48 h
[18] = tested on: HT-29; assay: Growth inhibition of human HT-29 cells incubated for 48 hrs by sulforhodamine B assay; type: functional; conditions: HT-29, 48 h
[19] = tested on: SW-620; assay: Growth inhibition of human SW620 cells incubated for 48 hrs by sulforhodamine B assay; type: functional; conditions: SW-620, 48 h
[20] = tested on: A498; assay: Growth inhibition of human A498 cells incubated for 48 hrs by sulforhodamine B assay; type: functional; conditions: A498, 48 h
[21] = tested on: ACHN; assay: Growth inhibition of human ACHN cells incubated for 48 hrs by sulforhodamine B assay; type: functional
[22] = tested on: RXF 393; assay: Growth inhibition of human RXF393 cells incubated for 48 hrs by sulforhodamine B assay; type: functional; conditions: RXF 393, 48 h
[23] = tested on: SN12C; assay: Growth inhibition of human SN12C cells incubated for 48 hrs by sulforhodamine B assay; type: functional
[24] = tested on: MCF7; assay: Growth inhibition of human MCF7 cells incubated for 48 hrs by sulforhodamine B assay; type: functional; conditions: MCF7, 48 h
[25] = tested on: Hs-578T; assay: Growth inhibition of human Hs 578T cells incubated for 48 hrs by sulforhodamine B assay; type: functional
[26] = tested on: MDA-MB-468; assay: Growth inhibition of human MDA-MB-468 cells incubated for 48 hrs by sulforhodamine B assay; type: functional; conditions: MDA-MB-468, 48 h
[27] = tested on: OVCAR-4; assay: Growth inhibition of human OVCAR4 cells incubated for 48 hrs by sulforhodamine B assay; type: functional; conditions: OVCAR-4, 48 h
[28] = tested on: OVCAR-8; assay: Growth inhibition of human OVCAR8 cells incubated for 48 hrs by sulforhodamine B assay; type: functional; conditions: OVCAR-8, 48 h
[29] = tested on: PC-3; assay: Growth inhibition of human PC3 cells incubated for 48 hrs by sulforhodamine B assay; type: functional; conditions: PC-3, 48 h
[30] = biological target: T1, DNA topoisomerase 1 (Homo sapiens) (UniProt P11387); assay: Inhibition of TOP1 in human HCT116 cells assessed as induction of cellular TOP1cc formation incubated for 1 hr by chemiluminescence based assay; type: cell-based
T1 sequence (whole entry): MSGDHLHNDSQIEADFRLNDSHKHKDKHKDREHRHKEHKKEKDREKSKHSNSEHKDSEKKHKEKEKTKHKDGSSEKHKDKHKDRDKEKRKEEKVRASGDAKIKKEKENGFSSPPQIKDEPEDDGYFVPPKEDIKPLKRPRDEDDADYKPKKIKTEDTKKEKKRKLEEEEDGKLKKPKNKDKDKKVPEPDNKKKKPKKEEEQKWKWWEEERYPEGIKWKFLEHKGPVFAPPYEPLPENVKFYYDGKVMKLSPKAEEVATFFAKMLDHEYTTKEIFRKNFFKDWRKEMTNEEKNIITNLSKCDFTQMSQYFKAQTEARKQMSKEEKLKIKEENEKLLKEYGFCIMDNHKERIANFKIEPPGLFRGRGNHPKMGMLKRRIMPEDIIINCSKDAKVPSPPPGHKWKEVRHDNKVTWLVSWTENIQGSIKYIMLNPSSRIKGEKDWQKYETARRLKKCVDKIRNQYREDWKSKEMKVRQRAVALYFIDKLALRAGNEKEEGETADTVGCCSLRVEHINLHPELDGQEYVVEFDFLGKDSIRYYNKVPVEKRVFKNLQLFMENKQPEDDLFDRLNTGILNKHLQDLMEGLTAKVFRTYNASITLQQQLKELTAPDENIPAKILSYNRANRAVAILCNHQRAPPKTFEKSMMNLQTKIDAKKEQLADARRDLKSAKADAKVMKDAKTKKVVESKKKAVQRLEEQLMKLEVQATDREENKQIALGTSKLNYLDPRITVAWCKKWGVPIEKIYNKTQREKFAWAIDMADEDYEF

[31] = biological target: T1, DNA topoisomerase 1 (Homo sapiens); assay: Inhibition of TOP1 in human HCT116 cells assessed as induction of cellular TOP1cc formation at 25 uM incubated for 1 hr by chemiluminescence based assay; type: cell-based
[32] = Acute toxicity in Kunming mouse assessed as animal survival at 122.9 mg/kg, ip administrated as single dose measured for 7 days post administration; type: organism-based; conditions: in vivo
[33] = tested on: HCT-116; assay: Antitumour activity against human HCT116 cells xenografted in ip dosed athymic nude nu/nu mouse assessed as reduction in tumor volume administrated daily by caliper method; type: functional, organism-based
[34] = tested on: HCT-116; assay: Antitumour activity against human HCT116 cells xenografted in athymic nude nu/nu mouse assessed as inhibition in tumor weight at 10 mg/kg administrated daily by caliper method relative to control; type: functional
[35] = tested on: MCF7; assay: Antitumour activity against human MCF7 cells xenografted in athymic nude nu/nu mouse assessed as inhibition in tumor weight at 10 mg/kg administrated daily by caliper method relative to control; type: functional
[36] = tested on: DU-145; assay: cells; conditions: Homo sapiens, DU-145, 72 h

## CNCCn1c(=O)c2cc(OC)c(OC)cc2c2ccc3cc4c(cc3c21)OCO4
[1]
  GI50: 20.1 nM
[2]
  GI50: 23.4 nM
[3]
  GI50: 94.8 nM
[4]
  GI50: 43.9 nM
[5]
  GI50: 90.6 nM
[6]
  GI50: 147 nM
[7]
  GI50: 21.2 nM
[8]
  GI50: 116 nM
[9]
  GI50: 39.4 nM
[10]
  GI50: 38.9 nM
[11]
  GI50: 174 nM
[12]
  GI50: 118 nM
[13]
  GI50: 122 nM
[14]
  GI50: 60.5 nM
[15]
  GI50: 156 nM
[16]
  GI50: 51.5 nM
[17]
  GI50: 116 nM
[18]
  GI50: 50.8 nM
[19]
  GI50: 65.8 nM
[20]
  GI50: 127 nM
[21]
  GI50: 85.6 nM
[22]
  GI50: 160 nM
[23]
  GI50: 171 nM
[24]
  GI50: 29.2 nM
[25]
  GI50: 904 nM
[26]
  GI50: 59.9 nM
[27]
  GI50: 154 nM
[28]
  GI50: 132 nM
[29]
  GI50: 112 nM
[30]
  Activity: Dose-dependent effect
[31]
  Activity: Active
[32]
  survival at 168 h: 100%
[33]
  inhibition: Dose-dependent effect
[34]
  inhibition in vivo at 10 mg/kg: 64.5%
[35]
  inhibition in vivo at 10 mg/kg: 56.9%
[36]
  GI50: 2 nM

## COc1cc2c(=O)n(CCN)c3c4cc5c(cc4ccc3c2cc1OC)OCO5
[1]
  GI50: 150 nM
[2]
  GI50: 63.3 nM
[3]
  GI50: 584 nM
[4]
  GI50: 399 nM
[5]
  GI50: 451 nM
[6]
  GI50: 990 nM
[7]
  GI50: 230 nM
[8]
  GI50: 398 nM
[9]
  GI50: 260 nM
[10]
  GI50: 246 nM
[11]
  GI50: 613 nM
[12]
  GI50: 759 nM
[13]
  GI50: 1900 nM
[14]
  GI50: 290 nM
[15]
  GI50: 1020 nM
[16]
  GI50: 285 nM
[17]
  GI50: 420 nM
[18]
  GI50: 168 nM
[19]
  GI50: 243 nM
[20]
  GI50: 1230 nM
[21]
  GI50: 366 nM
[22]
  GI50: 929 nM
[23]
  GI50: 739 nM
[24]
  GI50: 164 nM
[25]
  GI50: 1960 nM
[26]
  GI50: 157 nM
[27]
  GI50: 782 nM
[28]
  GI50: 930 nM
[29]
  GI50: 532 nM
[36]
  GI50: 14 nM
